Peptide text beside a SMILES is read from it. * marks the point of attachment. Stearoyl = CCCCCCCCCCCCCCCCCC(=O)*
Assays:
[1] = molecular target: T1, HIV-1HXB2 Env (Human immunodeficiency virus type 1 group M subtype B, UniProt P04578); test: HIV-1HXB2 Env-mediated cell-cell fusion (HL2/3 effector, TZM-bl target, luciferase reporter); assay type: cell-based
T1 construct: HL2/3 cells, which stably express high levels of Env, Gag, Tat, Rev, and Nef proteins of the integrated HIV-1 molecular clone HXB2/3gpt; host or cells: HL2/3 cells (effector), cocultured with TZM-bl target cells
T1 sequence (P04578 512-856): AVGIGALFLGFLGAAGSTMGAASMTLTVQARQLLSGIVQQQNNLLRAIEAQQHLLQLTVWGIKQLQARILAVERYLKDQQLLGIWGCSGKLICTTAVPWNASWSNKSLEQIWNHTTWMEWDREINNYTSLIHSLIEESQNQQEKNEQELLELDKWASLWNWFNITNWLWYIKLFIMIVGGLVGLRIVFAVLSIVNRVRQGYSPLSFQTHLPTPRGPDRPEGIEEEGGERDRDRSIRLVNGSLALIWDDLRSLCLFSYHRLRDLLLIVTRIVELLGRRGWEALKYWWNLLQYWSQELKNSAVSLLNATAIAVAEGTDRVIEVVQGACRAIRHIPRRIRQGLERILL
Procedure: The inhibitory activities of inhibitors on HIV-1HXB2 Env-mediated cell-cell fusion were determined by a reporter gene assay based on the activation of an HIV LTR-driven luciferase cassette in TZM-bl cells (target) by HIV-1 tat from HL2/3 cells (effector). Briefly, 1 x 10^4/well of TZM-bl cells were plated in 96-well plates and incubated at 37°C overnight. Then, 3 x 10^4/well of HL2/3 cells were cocultured with target cells for 6 h at 37°C in the presence or absence of an inhibitor at graded concentrations. Luciferase activity was measured using luciferase assay reagents and a Luminescence Counter (Promega, Madison, Wisconsin, USA).

[2] = test system: HIV-1NL4-3(D36G) pseudovirus; assay type: cell-based; conditions: Fig 1; NL4-3(D36G) pseudovirus; mean ± SD of three assays in triplicate; read-out: Anti-HIV activity (IC50, pM) NL4-3 entry
Procedure: The inhibitory activities of inhibitors against HIV-1 pseudoviruses and replication-competent isolates were measured as described previously. Briefly, HIV-1 pseudoviruses were generated via the cotransfection of HEK293T cells with an Env-expressing plasmid and a backbone plasmid that encodes Env-defective, luciferase-expressing HIV-1 genome (pSG3Δenv). Viral stocks of replication-competent HIV-1 isolates were generated by transfecting viral molecular clones into HEK293T cells. […] Inhibitors were prepared in 3-fold dilutions, mixed with 100 TCID50 of a virus, and then incubated for 1 h at room temperature. […] Luciferase activity was measured as described above.

[3] = molecular target: T2, gp41 NHR-derived target mimic peptide N39 (Human immunodeficiency virus type 1 group M subtype B, UniProt P04578); test: CD spectroscopy of lipopeptides in complex with target mimic peptide N39; assay type: binding, HIV-1; design: [θ]222: unit not given here; conditions: complex with N39, each peptide 10 μM in PBS; representative of 2 assays
T2 construct: the gp41 NHR-derived target mimic peptide N39
T2 sequence (P04578 528-566): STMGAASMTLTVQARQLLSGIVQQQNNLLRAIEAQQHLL
Text: Spectra were corrected by subtracting a solvent blank.

[4] = lipopeptide alone, 10 μM in PBS; [θ]222 / -33,000; representative of 2 assays
[5] = molecular target: HIV-1JRCSF; assay type: cell-based; conditions: Fig 1; replication-competent virus; mean ± SD of three assays in triplicate; read-out: Anti-HIV activity (IC50, pM) JRCSF infection
Procedure: The inhibitory activities of inhibitors against HIV-1 pseudoviruses and replication-competent isolates were measured as described previously. Briefly, HIV-1 pseudoviruses were generated via the cotransfection of HEK293T cells with an Env-expressing plasmid and a backbone plasmid that encodes Env-defective, luciferase-expressing HIV-1 genome (pSG3Δenv). Viral stocks of replication-competent HIV-1 isolates were generated by transfecting viral molecular clones into HEK293T cells. Culture supernatants were harvested at 48 h posttransfection, and 50% tissue culture infectious doses (TCID50) in TZM-bl cells were determined. Inhibitors were prepared in 3-fold dilutions, mixed with 100 TCID50 of a virus, and then incubated for 1 h at room temperature. The mixture was added to TZM-bl cells (10^4/well), and the cells were incubated for additional 48 h at 37°C. Luciferase activity was measured as described above.

Compound | IC50 [1] [nM] | IC50 [2] [pM] | Helix content (%) [3] [%] | [θ]222 [3] | Helix content (%) [4] [%] | IC50 [5] [pM]
CCCCCCCCCCCCCCCCCC(=O)NCCCC[C@H](NC(=O)[C@H](CCCCN)NC(=O)[C@H](CC(C)C)NC(=O)[C@H](CCC(=O)O)NC(=O)[C@H](CCC(=O)O)NC(=O)[C@H](CCC(=O)O)NC(=O)[C@H](CC(N)=O)NC(=O)[C@H](CCCCN)NC(=O)[C@H](CCCCN)NC(=O)[C@H](CCC(N)=O)NC(=O)[C@H](CCC(N)=O)NC(=O)[C@H](CCC(=O)O)NC(=O)[C@H](CCC(=O)O)NC(=O)[C@H](C)NC(=O)[C@H](CCCCN)NC(=O)[C@H](CCCCN)NC(=O)[C@H](CC(C)C)NC(=O)[C@H](CC(C)C)NC(=O)[C@H](CCC(=O)O)NC(=O)[C@H](CCC(=O)O)NC(=O)[C@@H](NC(=O)[C@H](CCCCN)NC(=O)[C@H](CCC(N)=O)NC(=O)[C@H](CCC(=O)O)NC(=O)[C@H](Cc1c[nH]c2ccccc12)NC(C)=O)[C@@H](C)CC)C(N)=O [LP-91] (Ac-WEQKIEELLKKAEEQQKKNEEELKK(Stearoyl)-NH2) | 0.0131 ± 0.00125 | 7.33 ± 0.49 | 55 | -18156 | 42 | 11.1 ± 2.13
CCCCCCCCCCCCCCCCCC(=O)NCCCC[C@H](NC(=O)[C@H](CCCCN)NC(=O)[C@H](CC(C)C)NC(=O)[C@H](CCC(=O)O)NC(=O)[C@H](CCC(=O)O)NC(=O)[C@H](CCC(=O)O)NC(=O)[C@H](CC(N)=O)NC(=O)[C@H](CCCCN)NC(=O)[C@H](CCCCN)NC(=O)[C@H](CCC(N)=O)NC(=O)[C@H](CCC(N)=O)NC(=O)[C@H](CCC(=O)O)NC(=O)[C@H](CCC(=O)O)NC(=O)[C@H](C)NC(=O)[C@H](CCCCN)NC(=O)[C@H](CCCCN)NC(=O)[C@H](CC(C)C)NC(=O)[C@H](CC(C)C)NC(=O)[C@H](CCC(=O)O)NC(=O)[C@H](CCC(=O)O)NC(=O)[C@@H](NC(C)=O)[C@@H](C)CC)C(N)=O [LP-92] (Ac-IEELLKKAEEQQKKNEEELKK(Stearoyl)-NH2) | 0.189 ± 0.0199 | 168 ± 20.6 | 38 | -12476 | 16 | 229 ± 28.4

Source: article PMC6375636, “Monotherapy with a low-dose lipopeptide HIV fusion inhibitor maintains long-term viral suppression in rhesus macaques” (PLoS Pathogens, 2019)
